Consider 20 molecules from patent publication US6620841B1, “Aromatic heterocycle compounds having HIV integrase inhibiting activities” (Shionogi & Co., Ltd., priority 1998, dated 2003).

Converted amounts (≈) assume the structure as drawn. Like-named read-outs stand apart in the source and are kept apart here. Bounds are passed on as bounds.

Series [1] deals with SIVagm SA212. Briefly: Anti-HIV/SIV activity in infected Molt-4 cells, virus amount by RT activity. It is filed as cell-based. The settings on record: RT activity of supernatant at 5 days postinfection. The protocol:
(§1) (1) Molt-4 cells (2×10^6 cells) were infected with HIV-1 NL432 (4×10^6 cpm), HIV-2 Rod (8×10^6 cpm), SIVmac MA239 (8×10^6 cpm) and SIVagm SA212 (8×10^6 cpm), and incubated for 1 hr at room temperature.
(4) Preparation of SIVagm SA212: SW480 cells were cultured in DMEM medium supplemented with 10% fetal bovine serum using 25 cm^2 flask. SIVagm SA212 infectious molecular DNA (40 μg), pSA212, transfected to the cells by calcium phosphate coprecipitation methods, and the supernatant (2 ml) at 2-3 days post-transfection was infected to M8166 cells (1×10^6 cells). The cells were cultured in 10 ml RPMI medium supplemented with 10% fetal bovine serum in CO2 incubator at 37° C. Every 3 days, the cells were separated from the supernatant by centrifugation and continued culture with new medium. The each supernatant was filtrated by 0.45 μm filter, measured RT activity, and stored at −80° C. as SIVagm stock virus.
(§2) (2) The cells were washed twice to remove the viruses and suspended in 10 ml RPMI medium supplemented with 10% fetal bovine serum. The infected cells (100 μl) were plated in 96 well microtiter plates containing with the serial 5 fold dilution of compounds (100 μl) and cultured in CO2 incubator at 37° C.
(§3) (3) The supernatant at 5 days postinfection was harvested and measured the amount of the virus by RT activity.
(§4) Preparation of the solution for RT assay:
(§5) A reaction mixture (90 μl) were contained 50 mM Tris-HCl, pH 8.3, 150 mM KCl, 10 mM MgCl2, 0.1% Nonidet P-40, 10 mM DTT (dithiothreitol), 5 μg/ml poly(rA), 5 μg/ml (dT)12-18 and 1 μCi [^3H] dTTP at final concentration after mixture of a sample (10 μl).
(§6) The procedure of RT assay:
(§7) 1. 10 μl of sample was plated to 3 wells of 96 well microtiter plate (triplicate assay).
(§8) 2. Reaction mixture (90 μl) chilled at 4° C. was added to each well, mixed and then incubate at 37° C. for 3 hrs.
(§9) 3. After incubation, the plate was chilled on ice, and passed through a DEAE-Filtermat using cell harvester. The filter was washed with 4.5% Na2HPO4 (20 sec) and H2O (10 sec).
(§10) 4. The filter was dried at 95° C. for 15 min.
(§11) 5. 10 ml of scintilator was added and sealed.
(§12) 6. Radioactivity was measured by LKB Beta Plate scintillation spectroscopy.
(§13) 7. RT activity (cpm/ml) was calculated from average of three wells.

In series [2] the test system is HIV-2 Rod. Described as above. It is filed as cell-based. Particulars: RT activity of supernatant at 5 days postinfection. How it is done:
as §1
(2) Preparation of […] Rod: HIV-2 Rod was infected to M8166 cells (1×10^6 cells). The cells were cultured in 10 ml RPMI medium supplemented with 10% fetal bovine serum in CO2 incubator at 37° C. After apparent giant cells were observed, the cells were removed by centrifugation and then the supernatant was filtrated by 0.45 μm filter, measured RT activity, and stored at −80° C. as HIV-2 stock virus.
as §2, §3, §4, §5, §6, §7, §8, §9, §10, §11, §12, §13

In series [3] the test system is HIV-1 NL432. Described as above. The format is cell-based. Particulars: RT activity of supernatant at 5 days postinfection. The protocol:
as §1
(§14) (1) Preparation of HIV-1 NL432: SW480 cells were cultured in DMEM medium supplemented with 10% fetal bovine serum using 25 cm^2 flask. HIV-1 infectious molecular DNA (40 μg), pNL432, transfected to the cells by calcium phosphate coprecipitation method, and the supernatant (2 ml) at 2-3 days post-transfection was infected to M8166 cells (1×10^6 cells). The cells were cultured in 10 ml RPMI medium supplemented with 10% fetal bovine serum in CO2 incubator at 37° C. After apparent giant cells were observed, the cells were removed by centrifugation and then the supernatant was filtrated by 0.45 μm filter, measured RT activity, and stored at −80° C. as HIV-1 stock virus.
as §2, §3, §4, §5, §6, §7, §8, §9, §10, §11, §12, §13

Series [4] has as its system SIVmac MA239. Described as above. It is filed as cell-based. Particulars: RT activity of supernatant at 5 days postinfection. How it is done: as §1
as §14, with “(3) Preparation” for “(1) Preparation”, “of SIVmac MA239:” for “of HIV-1 NL432:”, “flask. SIVmac MA239” for “flask. HIV-1”, “μg), pMA239,” for “μg), pNL432,”, “to CEMX174” for “to M8166”, “as SIVmac” for “as HIV-1”
as §2, §3, §4, §5, §6, §7, §8, §9, §10, §11, §12, §13

The test system of series [5] is feline immunodeficiency virus (FIV TM-2 strain). In words: Anti-FIV activity in MYA-1 feline T-cells, virus amount by RT activity. It is filed as cell-based. Particulars: FIV TM-2 in MYA-1 cells, RT activity at 10 days postinfection. The protocol: (1) The serial 5 fold diluted samples were plated in 24 well microtiter plate. Feline T-cell lines (MYA-1 cells: 4×10^5 cells/well) and feline immunodeficiency virus (FIV TM-2 strain: 3000 cpm/well) were added to each well. The cells were cultured with 1.5 ml RPMI medium supplemented with 10% fetal bovine serum, 2 μg/ml polybrene, 100 unit/ml human recombinant IL-2 and 50 μM 2-mercaptoethanol in CO2 incubator at 37° C.
1. Preparation of FIV TM-2: FIV TM-2 was infected to MYA-1 cells (1×10^6 cells). The cells were cultured in 10 ml RPMI medium supplemented with 10% fetal bovine serum, 2 μg/ml polybrene, 100 unit/ml human recombinant IL-2 and 50 μM 2-mercaptoethanol in CO2 incubator at 37° C. Every 1-2 days, the cells were separated from the supernatant by centrifugation and continued culture with new medium. Each of the supernatant was filtrated by 0.45 μm filter, measured RT activity, and stored at as −80° C. as FIV stock virus.
(2) Every 1-2 days, the supernatants were measured the amount of the virus by RT activity (as same as experimental example 2).

Series [6] deals with HIV-1 integrase (Human immunodeficiency virus type 1 group M subtype B, UniProt P12497). In words: HIV-1 integrase inhibition assay (microtiter plate, substrate/target DNA, OD 405 nm).
Experimental: (2) Calculations of the Percent Inhibitions (the IC50 Values of Test Compounds)
Streptavidin, obtained from Vector Laboratories, was dissolved in 0.1 M carbonate buffer (composition: 90 mM Na2CO3, 10 mM NaHCO3) at concentration of 40 μg/ml. After coating each well of microtiter plates (obtained from NUNC) with 50 μl of the above solution at 4° C. over night, each well was washed twice with PBS (composition: 13.7 mM NaCl, 0.27 mM KCl, 0.43 mM Na2HPO4, 0.14 mM KH2PO4) and blocked with 300 μl of 1% skim milk in PBS for 30 min. Additionally, each well was washed twice with PBS and added 50 μl of substrate DNA solution (2 pmol/μl). The microtiter plates were kept at room temperature for 30 min. Then, each well was washed twice with PBS and once with H2O.
Subsequently, in the each well prepared above were added 45 μl of the reaction buffer prepared from 12 μl of the buffer (composition: 150 mM MOPS (pH 7.2), 75 mM MnCl2, 50 mM 2-mercaptoethanol, 25% glycerol, 500 μg/ml bovine serum albumin-fraction V), 1 μl of target DNA (5 pmol/μl), and 32 μl of the distilled water. Additionally, 6 μl of either a test compound in DMSO or DMSO for positive control(PC) was mixed with the above reaction buffer, then 9 μl of an integrase solution (30 pmol) was added and mixed well. In the well of negative control (NC) was added 9 μl of the integrase dilution buffer (composition: 20 mM MOPS (pH7.2), 400 mM potassium glutamate, 1 mM EDTA, 0.1% NP-40, 20% glycerol, 1 mM DTT, 4M urea).
The microtiter plates were incubated at 30° C. for 1 hour. The reaction solution was removed and each well was washed twice with PBS. Subsequently, each well of the microtiter plates was filled with 100 μl of anti-digoxigenin antibody labeled with alkaline phosphatase (Sheep Fab fragment: obtained from Boehringer) and incubated at 30° C. for 1 hour. Then, each well was washed twice with 0.05% Tween20 in PBS and once with PBS. Next, 150 μl of the Alkaline phosphatase reaction buffer (composition: 10 mM p-Nitrophenylphosphate (obtained from Vector Laboratories), 5 mM MgCl2, 100 mM NaCl, 100 mM Tris-HCl (pH 9.5))was added in each well. […] The optical density (OD) at 405 nm of each well was measured and the percent inhibition was determined by the following expression.
The percent inhibition (%)=100[1-{(C abs.−NC abs.)/(PC abs.−NC abs.)}]
C abs.; the OD of the well of the compounds
NC abs.: the OD of the negative control (NC)
PC abs.: the OD of the positive control (PC)
IC50(μg/ml)=x−{(X−50)(x−y)/(X−Y)}
Where [7] appears, read: Simian immunodeficiency virus, 120 h.

Turning to `Nc1ccn([C@@H]2CS[C@H](CO)O2)c(=O)n1` [3TC], in series [1], the “Anti-HIV/SIV activity EC50, SIVagm” value stood at 0.022 µg/mL. The “Anti-HIV/SIV activity EC50, HIV-2 Rod” value in series [2] turned out to be 0.022 µg/mL. For the same molecule, the “Anti-HIV/SIV activity EC50, HIV-1 NL432” value in series [3] came to 0.0084 µg/mL. The “Anti-HIV/SIV activity EC50, SIVmac” value in series [4] was 0.0091 µg/mL.
Take `Cc1cn([C@H]2C[C@H](N=[N+]=[N-])[C@@H](CO)O2)c(=O)[nH]c1=O` [AZT]: in series [1], the “Anti-HIV/SIV activity EC50, SIVagm” value was 0.00036 µg/mL. The molecule also returned a concentration for a half-maximal effect (EC50) in series [5] of 0.048 µg/mL (≈ 0.18 µM). Further, the “Anti-HIV/SIV activity EC50, HIV-2 Rod” value in series [2] was found to be 0.00028 µg/mL. Besides, in series [3], the “Anti-HIV/SIV activity EC50, HIV-1 NL432” value amounted to 0.00051 µg/mL. Moreover, the “Anti-HIV/SIV activity EC50, SIVmac” value in series [4] is 0.00035 µg/mL.
Take `O=C(/C=C(\O)c1nc[nH]n1)c1ccc(Cc2ccc(F)cc2)o1` [I-42, 1-[5-(4-fluorobenzyl)furan-2-yl]-3-hydroxy-3-(1H-1,2,4-triazol-3-yl)-propenone]: the 50% effective concentration (EC50) in series [5] (Feline immunodeficiency virus, T-cell, 240 h, read-out: EC50) stood at 0.3 µg/mL (≈ 0.958 µM).
As to `O=C(C=C(O)c1nc[nH]n1)c1ccc(Sc2ccc(F)cc2F)o1` [I-70, 1-[5-(2,4-Difluorophenylthio)furan-2-yl]-3-hydroxy-3-(1H-1,2,4-triazol-3-yl)-propenone], the melting point fell in the range of 158 to 160 °C. In series [6], the IC50 was 1200 nM.
For the molecule `O=C(C=C(O)c1nc[nH]n1)c1ccc(Cc2ccc(F)cc2F)o1` [I-74, 1-[5-(2,4-Difluorobenzyl)furan-2-yl]-3-hydroxy-3-(1H-1,2,4-triazol-3-yl)-propenone], the melting point lay within 171 to 173 °C. In series [6], this molecule gave an IC50 of 1300 nM.
With `O=C(C=C(O)c1nc[nH]n1)c1ccc(Cc2ccccc2Cl)o1` [I-80, 1-[5-(2-Chlorobenzyl)furan-2-yl]-3-hydroxy-3-(1H-1,2,4-triazol-3-yl)-propenone], the melting point is 169 to 171 °C. In series [6], this molecule gave an IC50 of 1610 nM.
For the molecule `O=C(C=C(O)c1nc[nH]n1)c1ccc(Cc2cccs2)o1` [I-83, 3-Hydroxy-1-[[5-(thiophen-2-yl)methyl]furan-2-yl]-3-(1H-1,2,4-triazol-3-yl)-propenone], the melting point lay within 207 to 208 °C. The molecule further showed a half-maximal inhibitory concentration (IC50) in series [6] of 4980 nM.
As to `O=C(C=C(O)c1nc[nH]n1)c1ccc(Cc2ccsc2)o1` [I-85, 3-Hydroxy-1-[[5-(thiophen-3-yl)methyl]furan-2-yl]-3-(1H-1,2,4-triazol-3-yl)-propenone], the melting point lay in the range of 210 to 211 °C. Moreover, the half-inhibitory concentration (IC50) in series [6] is 4650 nM.
As for `O=C(C=C(O)c1nc[nH]n1)c1cc(Cl)c(Cc2ccc(F)cc2)o1` [I-86, 1-[4-Chloro-5-(4-fluorobenzyl)furan-2-yl]-3-hydroxy-3-(1H-1,2,4-triazol-3-yl)-propenone], the melting point was in the range of 203 to 204 °C. In addition, the IC50 in series [6] is 1440 nM.
For `O=C(C=C(O)c1nc[nH]n1)c1ccc(Cc2ccsc2Cl)o1` [I-91, 1-[[5-(2-Chlorothiophen-3-yl)methyl]furan-2-yl]-3-hydroxy-3-(1H-1,2,4-triazol-3-yl)-propenone], the melting point lay within 105 to 106 °C. Also, 1790 nM corresponded to half-maximal inhibition in series [6] (IC50).
Consider `O=C(C=C(O)c1nc[nH]n1)c1ccc(C(O)c2ccc(F)cc2)o1` (stereo not drawn) [I-94, 1-[5-(4-Fluorophenyl-hydroxy-methyl)furan-2-yl]-3-hydroxy-3-(1H-1,2,4-triazol-3-yl)-propenone], for which the melting point was 191 to 192 °C (dec.). In series [6], this molecule showed an IC50 of 4860 nM.
For the molecule `Cc1nc(C(O)=CC(=O)c2ccc(Cc3ccc(F)cc3)o2)cs1` [I-96, 1-[5-(4-Fluorobenzyl)furan-2-yl]-3-hydroxy-3-(2-methylthiazol-4-yl)-propenone], the melting point was in the range of 96 to 98 °C. Half-maximal inhibition in series [6] (IC50) required 2450 nM.
Taken in the same sequence, the figures for `COCc1nc(C(O)=CC(=O)c2ccc(Cc3ccc(F)cc3)o2)n[nH]1` [I-97] were 167 to 168 °C and 1710 nM.
With `CCc1nc(C(O)=CC(=O)c2ccc(Cc3ccc(F)cc3)o2)n[nH]1` [I-98, 3-(5-Ethyl-1H-1,2,4-triazol-3-yl)-1-[5-(4-fluorobenzyl)furan-2-yl]-3-hydroxy-propenone], the melting point was 204 to 205 °C. For the same molecule, the IC50 in series [6] was 1350 nM.
The matching figures for `CC(C)c1nc(C(O)=CC(=O)c2ccc(Cc3ccc(F)cc3)o2)n[nH]1` [I-99, 1-[5-(4-Fluorobenzyl)furan-2-yl]-3-hydroxy-3-(5-isopropyl-1H-1,2,4-triazol-3-yl)-propenone]: 146 to 147 °C and 1860 nM.
In turn, `Cn1ccnc1C(O)=CC(=O)c1ccc(Cc2ccc(F)cc2)o1` [I-100, 1-[5-(4-Fluorobenzyl)furan-2-yl]-3-hydroxy-3-(1-methyl-1H-imidazol-2-yl)-propenone] returned a melting point of 56 to 57 °C. This molecule had an IC50 in series [6] of 4900 nM.
The molecule `CCCc1nc(C(O)=CC(=O)c2ccc(Cc3ccc(F)cc3)o2)n[nH]1` [I-112, 1-[5-(4-Fluorobenzyl)furan-2-yl]-3-hydroxy-3-(5-propyl-1H-1,2,4-triazol-3yl)-propenone] had a melting point of 167 to 168 °C. The molecule also had an IC50 in series [6] of 1720 nM.
The matching figures for `O=C(C=C(O)c1nc[nH]n1)c1cnc(Cc2ccc(F)cc2)o1` [I-150, 1-[2-(4-Fluorobenzyl)oxazolyl-5-yl]-3-hydroxy-3-(1H-1,2,4-triazol-3-yl)-propenone]: 200 to 203 °C and 3120 nM.
As for `Cc1cn([C@H]2C=C[C@@H](CO)O2)c(=O)[nH]c1=O` [d4T], in series [1], the “Anti-HIV/SIV activity EC50, SIVagm” value was found to be 0.0045 µg/mL. Further, the “Anti-HIV/SIV activity EC50, HIV-2 Rod” value in series [2] stood at 0.0041 µg/mL. For the same molecule, the “Anti-HIV/SIV activity EC50, HIV-1 NL432” value in series [3] is 0.0061 µg/mL. In addition, in series [4], the “Anti-HIV/SIV activity EC50, SIVmac” value worked out at 0.0034 µg/mL.
For the molecule `Cc1ccnc2c1NC(=O)c1cccnc1N2C1CC1` [nevirapine], the EC50 was greater than 20 µg/mL in series [1] (setting [7]); greater than 20 µg/mL in series [2] (Human immunodeficiency virus 2, 120 h); 0.013 µg/mL (≈ 0.0488 µM) in series [3] (Human immunodeficiency virus 1, 120 h); greater than 20 µg/mL in series [4] (setting [7]).
